Laboratory results reported in patent US20160264593A1 (priority 2013, published 2016).

Assay: Pharmacokinetic study of 157 (and metabolite endothal) in SD rats, iv and po; plasma, liver, brain
Format: in vivo
Details: for endothal detectable in brain samples: after single iv 157 at 1.5 mg/kg; for Cmax: female, rat, in vivo, iv
Experimental: The blood, liver and brain tissue samples were collected at predetermined times from rats. […] Compound were diluted shortly before use in 4% sodium bicarbonate for sterile injection (this is the standard pediatric solution of NaHCO3 with a pH of about 8.5).
Compound 153 was freshly prepared by diluting the drugs shortly before use in 4% sodium bicarbonate for sterile injection (this is the standard pediatric solution of NaHCO3 with a pH of about 8.5). The final concentrations of 153 solutions were 0.25 mg/mL. The 153 solutions were administered via iv or po route at dose volume of 5 ml/kg according to the latest body weight. Compound 157 was freshly prepared by diluting the drugs shortly before use in 4% sodium bicarbonate for sterile injection (this is the standard pediatric solution of NaHCO3 with a pH of about 8.5). The final concentrations of […] solutions were 0.3 mg/mL. The 157 solutions were administered via iv or po route at dose volume of 5 ml/kg according to the latest body weight.
Twelve (12) female SD rats per group were dosed by iv with 153 or 157. The rats were fasted overnight prior to dosing, with free access to water. Foods were withheld for 2 hours post-dose. Blood, liver and brain tissue samples in two animals each group were collected at each time point, within 10% of the scheduled time for each time point. Two extra animals were used for analytic method development.
Blood (>0.3 mL) were collected via aorta abdominalis in anaesthetic animals into tubes containing heparin at 15 min, 1, 2, 6, 10 and 24 hours after iv administration. Liver and brain tissues were collected immediately after animal death. The liver and brain tissues were excised and rinsed with cold saline to avoid blood residual. Upon collection, each sample was placed on ice and the blood samples were subsequently centrifuged (4° C., 11000 rpm, 5 min) to separate plasma. The obtained plasma, liver and brain tissue samples were stored at −70° C. until LC-MS/MS analysis.
Two (2) female SD rats per group were dosed by po with 153 or 157. The rats were fasted overnight prior to dosing, with free access to water. Foods were withheld for 2 hours post-dose. Blood samples (>0.3 mL) were collected via aorta abdominalis in anaesthetic animals into tubes containing heparin at 30 min, 1, 2, 6, 10 and 24 hours after po administration.
To each sample, 30 μL IS-D (for blank samples, 20 μL acetonitrile:water (1:1) was added) and 300 μl acetonitrile was added. The sample mixture was vortexed for approximately 3 min. After centrifugation at 10000 rpm for 5 min at 4° C., 100 μL of the upper layer was transferred to a new tube and added 200 μL 0.4% formic acid in water (pH6.0). The mixture was vortexed for approximately 3 min before injected onto the LC/MS/MS system for analysis.
On the day of the assay, the frozen liver and brain samples were thawed unassisted at room temperature. An about 200 mg weighed sample of each thawed tissue was placed into a plastic tube with water (0.6 mL) to facilitate homogenization. Tissue processing was conducted using a homogenizer for approximately 1 min, 100 μl homogenate was transferred into a fresh Eppendorf tube. To each tube, 50 μL IS-D was added and mixed. Then 500 μl acetonitrile was added and the sample mixture was vortexed for approximately 3 min. After centrifugation at 10000 rpm for 5 min at 4° C., 100 μL of the upper layer was transferred to a new tube and evaporate the supernatant to dryness at 35° C. Reconstitute the residue with 200 μL of 0.4% formic acid in water (pH 6.0), and vortex for 3 min, submit for LC-MS/MS analysis.
Frozen unknown plasma samples were completely thawed at room temperature and vortexed thoroughly. With a pipette, 50 μL of plasma was transferred into a 2.0 mL Eppendorf tube. 50 μL of 0.1N HCl and 800 μL ethyl acetate were added into each sample. The sample mixture was vortexed for approximately 3 min.

In the case of `O=C(O)C1C2CCC(O2)C1C(=O)O` (stereo not shown) [Endothal, 7-oxabicyclo[2.2.1]heptane-2,3-dicarboxylic acid], the Endothal plasma concentration (after iv 157, 10 hr, Rat 1) is reported as “BLQ”, the Endothal plasma concentration (after iv 157, 10 hr, Rat 2) is reported as “BLQ” and the Endothal plasma concentration (after iv 157, 24 hr, Rat 1) is reported as “BLQ”. For the same compound, the Endothal plasma concentration (after iv 157, 24 hr, Rat 2) was “BLQ”, the Endothal plasma concentration (after po 157, 10 hr, Rat 1) was “BLQ” and the Endothal plasma concentration (after po 157, 10 hr, Rat 2) was “BLQ”. For the same compound, the “endothal detectable in brain samples” value (1.5 mg/kg) was “undetectable”, the “endothal detectable in brain samples” value (listed as endothal, 1.5 mg/kg) was “not detectable” and the Cmax (SD, 1.5 mg/kg) was 3720 ng/g. It also gave a Cmax (Sprague-Dawley (SD)) of 3720 ng/g.
